Several values for one entry are separate records, joined by “and”; a condition that tells them apart may be missing. Equal values may be shown once. Where a name gives a salt, the structure may show the parent alone.
Assay: Metabolism of (HO)2 DEHSPM v. DEHSPM in mouse liver and kidney (HPLC)
Type: in vivo
Experimental: Metabolism of (HO)2 DEHSPM v. DEHSPM in Mouse Liver and Kidney. […] In ease case, animals were sacrificed for HPLC analysis one day after the final dose.
HPLC Analysis of Polyamines. Various tissues including the liver and kidney were prepared for HPLC analysis of polyamine content. In order to facilitate their handling, the organs were submerged in liquid nitrogen. Once frozen and weighed, the tissues were homogenized (Tissuemizer, Tekmar, Cincinnati, Ohio) in 1.2N perchloric acid (containing 1,7-diaminoheptane internal standard) in a 1:20 (w/v) ratio. The tissue homogenates were then freeze-thawed three times and stored in a -70° C. freezer until HPLC analysis was performed.
Each chromatographic assay included calibration standards which were treated in the same manner as the samples. […] The concentration of each polyamine was calculated from the peak area by calibration curves obtained by non-weighted least squares linear regression. Peak area and linear regression calculations were performed on a Macintosh Centris 650 with Rainin Dynamax HPLC Method Manager software (Rainin Instrument Co., Ridgefield, N.J.).

[1] = 24 h after regimen, normalized for 30 g mouse
[2] = liver and kidneys, 24 h after regimen, 30 g mouse
[3] = mouse, one day after subchronic equimolar i.p. regimen

In the case of `CCNCC[C@@H](O)CNCCCCNC[C@H](O)CCNCC` [(HO)2 DEHSPM, N^1,N^14 -Diethyl-3(R),12(R)-dihydroxyhomospermine tetrahydrochloride], the “% of total dose present as total drug + metabolite, Kidneys” value [1] is reported as 4.04%, the “% of total dose present as total drug + metabolite, Liver” value [1] is reported as 5.96% and the “% of total dose present as unmetabolized parent drug, Kidneys” value [1] is reported as “.357 ± 0.34%”. For the same molecule, the “% of total dose present as unmetabolized parent drug, Liver” value [1] was 3.39 ± 0.48%, the “Amount of total dose present as dideethylated metabolite HSPM/(HO)2 HSPM, Kidneys” value [1] was 0.030 µmol and the “Amount of total dose present as dideethylated metabolite HSPM/(HO)2 HSPM, Liver” value [1] was 0.166 µmol. For the same molecule, the “Amount of total dose present as total drug + metabolite, Kidneys” value [1] was 0.261 µmol, the “Amount of total dose present as total drug + metabolite, Liver” value [1] was 0.385 µmol and the “Amount of total dose present as unmetabolized parent drug, Kidneys” value [1] was 0.231 µmol. The “Amount of total dose present as unmetabolized parent drug, Liver” value [1] was 0.219 µmol, the “% of total dose present as total drug + metabolite, Both Tissues” value [2] was 10.01% and the “% of total dose present as unmetabolized parent drug, Both Tissues” value [2] was 6.96%. The “Amount of total dose present as dideethylated metabolite HSPM/(HO)2 HSPM, Both Tissues” value [2] was 0.196 µmol, the “Amount of total dose present as total drug + metabolite, Both Tissues” value [2] was 0.646 µmol and the “Amount of total dose present as unmetabolized parent drug, Both Tissues” value [2] was 0.450 µmol. For the same molecule, the “level of unchanged drug in kidney” value [3] was 481±46 nmol/g wet weight and the “level of unchanged drug in liver” value [3] was 83.6±11.7 nmol/g wet weight and 84±12 nmol/g wet weight.
